Active and inactive are the calls of the source. No cut-off for these calls is given here.
What was measured:
[1] = Therapeutic efficacy against Escherichia coli infected lethal mouse sepsis model assessed as survival at 30 mg/kg, ip administered 0.5 hrs and 4 hrs post infection; format: organism-based; set-up: dose 30 mg/kg, route intraperitoneal; conditions: in vivo
[2] = Therapeutic efficacy against Staphylococcus aureus infected lethal mouse sepsis model assessed as survival at 30 mg/kg, ip administered 0.5 hrs and 4 hrs post infection; format: organism-based; set-up: dose 30 mg/kg, route intraperitoneal; conditions: in vivo
Escherichia coli [3] = assay: Prophylactic efficacy against Escherichia coli infected lethal mouse sepsis model assessed as survival at 50 mg/kg, ip administered 0.5 hrs before infection; format: functional; conditions: route intraperitoneal
Mus musculus [4] = assay: Subchronic toxicity in mouse up to 450 mg/kg, ip after 5 days; format: organism-based; set-up: dose 450 mg/kg, route intraperitoneal; conditions: in vivo, 120 h
Escherichia coli [5] = assay: Prophylactic efficacy against Escherichia coli infected lethal mouse sepsis model assessed as survival at 50 mg/kg, ip administered 3 hrs before infection; format: functional; conditions: route intraperitoneal
[6] = Half life in mouse at 100 mg/kg, ip after 30 mins; format: ADME, organism-based; set-up: dose 100 mg/kg, route intraperitoneal; conditions: in vivo
Pseudomonas aeruginosa = assay: Antibacterial activity against Pseudomonas aeruginosa infected in cyclophosphamide-treated immunocompromized mouse assessed as inhibition of wound infection; format: functional, organism-based
Escherichia coli [7] = assay: Antibacterial activity against Escherichia coli infected lethal mouse sepsis model assessed as reduction in bacterial load in mouse blood at 50 mg/kg, ip administered as single dose 0.5 hrs post infection measured after 5 hrs; format: functional; conditions: route intraperitoneal
Escherichia coli [8] = assay: Antibacterial activity against Escherichia coli infected lethal mouse sepsis model assessed as reduction in bacterial load in mouse blood at 50 mg/kg, ip administered 0.5 hrs and 4 hrs post infection measured after 5 hrs; format: functional; conditions: route intraperitoneal
Escherichia coli [9] = assay: Antibacterial activity against Escherichia coli; format: functional
[10] = Cmax in mouse at 100 mg/kg, ip after 30 mins; format: ADME, organism-based; set-up: dose 100 mg/kg, route intraperitoneal; conditions: in vivo
Mus musculus [11] = assay: Acute toxicity in mouse up to 450 mg/kg, ip after 5 days; format: organism-based; set-up: dose 450 mg/kg, route intraperitoneal; conditions: in vivo, 120 h
Escherichia coli [12] = assay: Prophylactic efficacy against Escherichia coli infected lethal mouse sepsis model assessed as survival at 50 mg/kg, ip administered 1 hr before infection; format: functional; conditions: route intraperitoneal
Plasma = assay: Stability in mouse plasma after 3 hrs; format: ADME, cell-free
Staphylococcus aureus = assay: Antibacterial activity against Staphylococcus aureus; format: functional
Escherichia coli [13] = assay: Prophylactic efficacy against Escherichia coli infected lethal mouse sepsis model assessed as survival at 50 mg/kg, ip administered 2 hrs before infection; format: functional; conditions: route intraperitoneal
Streptococcus pyogenes = assay: Antibacterial activity against Streptococcus pyogenes infected in cyclophosphamide-treated immunocompromized mouse assessed as inhibition of muscle infection; format: functional, organism-based; conditions: Muscle tissue

Compound | Efficacy [1] [%] | Efficacy [2] [%] | Efficacy (Escherichia coli [3]) [%] | Activity (Mus musculus [4]) | Efficacy (Escherichia coli [5]) [%] | half-life [6] [min] | Activity (Pseudomonas aeruginosa) | CFU (Escherichia coli [7]) [×10³ /ml] | CFU (Escherichia coli [8]) [×10² /ml] | MIC (Escherichia coli [9]) [µg/mL] | Cmax [10] [µg/mL] | Activity (Mus musculus [11]) | Efficacy (Escherichia coli [12]) [%] | Stability (Plasma) | MIC (Staphylococcus aureus) [µg/mL] | Efficacy (Escherichia coli [13]) [%] | Activity (Streptococcus pyogenes)
CN(CCCNC(=O)[C@@H](N)CCCNC(=N)N)c1ncccn1 | 40 | 40 | – | – | – | – | – | – | – | – | – | – | – | – | – | – | –
O=C(O)c1cn(C2CC2)c2cc(N3CCNCC3)c(F)cc2c1=O [CIPROFLOXACIN] | 60 | 40 | – | – | – | – | – | – | – | – | – | – | – | – | – | – | –
CN(CCCN(C)c1ncccn1)C(=O)[C@@H](N)CCCNC(=N)N | 80 | 60 | 80 | Non-toxic | 40 | 60 | inactive | 2.7 | 3.7 | > 250 | 56 | Non-toxic | 80 | Stable | > 250 | 60 | inactive
